According to patent publication US20200016136A1 (VIIV HEALTHCARE UK (NO. 5) LIMITED, priority 2017, published 2020):

System: NL-RLuc virus (recombinant NL4-3 HIV with Renilla Luciferase gene)
Assay: Inhibition of HIV replication (NL-RLuc virus in MT-2 cells, luciferase readout)
Assay type: cell-based, Human immunodeficiency virus (HIV)
Conditions: MT2, 120 h
Procedure, shortened: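 MT-2 cells infected with NL4-3-derived virus carrying Renilla luciferase in place of part of nef, grown 5 days with serial compound dilutions in RPMI 1640/10% FBS. Virus growth read as luciferase expression. EC50 from median effect equation, at least 2 experiments.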

With `Cc1nc(C)c([C@H](OC(C)(C)C)C(=O)O)c(N2CCC(C)(C)CC2)c1-c1ccc2c(c1)CCN(c1cc(N3CCC(CO)CC3)ncn1)C2` [Example 120, (S)-2-(tert-Butoxy)-2-(4-(4,4-dimethylpiperidin-1-yl)-5-(2-(6-(4-(hydroxymethyl)piperidin-1-yl)pyrimidin-4-yl)-1,2,3,4-tetrahydroisoquinolin-6-yl)-2,6-dimethylpyridin-3-yl)acetic Acid] the EC50 was 14 nM.
Work on `CC1(C)CCN(c2c(-c3ccc4c(c3)CCN(c3ncnc5c3oc3ccccc35)C4)c(N)nc(Cl)c2[C@H](OC(C)(C)C)C(=O)O)CC1` [Example 100, (S)-2-(6-Amino-5-(2-(benzofuro[3,2-d]pyrimidin-4-yl)-1,2,3,4-tetrahydroisoquinolin-6-yl)-2-chloro-4-(4,4-dimethylpiperidin-1-yl)pyridin-3-yl)-2-(tert-butoxy)acetic Acid] yielded an EC50 of 4 nM.
For `Cc1nc(CO)c(-c2ccc3c(c2)CCN(c2nccc(-c4cnccn4)n2)C3)c(N2CCC(C)(C)CC2)c1[C@H](OC(C)(C)C)C(=O)O` [Example 165, (S)-2-(tert-Butoxy)-2-(4-(4,4-dimethylpiperidin-1-yl)-6-(hydroxymethyl)-2-methyl-5-(2-(4-(pyrazin-2-yl)pyrimidin-2-yl)-1,2,3,4-tetrahydroisoquinolin-6-yl)pyridin-3-yl)acetic Acid], the EC50 was 2 nM.
`Cc1nc(C)c([C@H](OC(C)(C)C)C(=O)O)c(N2CCC(C)(C)CC2)c1-c1ccc2c(c1)CCN(c1ccnc(N3CC4CCC(C3)O4)n1)C2` [Example 29, (2S)-2-(tert-Butoxy)-2-[4-(4,4-dimethylpiperidin-1-yl)-2,6-dimethyl-5-[2-(2-{8-oxa-3-azabicyclo[3.2.1]octan-3-yl}pyrimidin-4-yl)-1,2,3,4-tetrahydroisoquinolin-6-yl]pyridin-3-yl]acetic Acid] was tested, and the EC50 was 4 nM.
Work on `Cc1nc(C)c([C@H](OC(C)(C)C)C(=O)O)c(N2CCC(C)(C)CC2)c1-c1ccc2c(c1)CCN(c1cc(N3CCOCC3)nc(N3CCOCC3)n1)C2` [Example 86, (S)-2-(tert-Butoxy)-2-(4-(4,4-dimethylpiperidin-1-yl)-5-(2-(2,6-dimorpholinopyrimidin-4-yl)-1,2,3,4-tetrahydroisoquinolin-6-yl)-2,6-dimethylpyridin-3-yl)acetic Acid] yielded an EC50 of 4 nM.
Molecule `COCCNc1nc(C)c([C@H](OC(C)(C)C)C(=O)O)c(N2CCC(C)(C)CC2)c1-c1ccc2c(c1)CCN(Cc1c(C)cccc1Cl)C2` [Example 2, (S)-2-(tert-Butoxy)-2-(5-(2-(2-chloro-6-methylbenzyl)-1,2,3,4-tetrahydroisoquinolin-6-yl)-4-(4,4-dimethylpiperidin-1-yl)-6-((2-methoxyethyl)amino)-2-methylpyridin-3-yl)acetic Acid] has an EC50 of 4 nM.
Molecule `Cc1nc(C)c([C@H](OC(C)(C)C)C(=O)O)c(N2CCC(C)(C)CC2)c1-c1ccc2c(c1)CCN(c1cc(N3CCC(N4CCCCC4)CC3)ncn1)C2` [Example 135, (S)-2-(5-(2-(6-([1,4′-Bipiperidin]-1′-yl)pyrimidin-4-yl)-1,2,3,4-tetrahydroisoquinolin-6-yl)-4-(4,4-dimethylpiperidin-1-yl)-2,6-dimethylpyridin-3-yl)-2-(tert-butoxy)acetic Acid] has an EC50 of 19 nM.
In the case of `Cc1ccc2c(n1)oc1c(N3CCc4cc(-c5cnc(C)c([C@H](OC(C)(C)C)C(=O)O)c5N5CCC(C)(C)CC5)ccc4C3)ncnc12` [Example 47, (2S)-2-(tert-Butoxy)-2-[4-(4,4-dimethylpiperidin-1-yl)-2-methyl-5-(2-{11-methyl-8-oxa-3,5,10-triazatricyclo[7.4.0.0^2,7]trideca-1(9),2,4,6,10,12-hexaen-6-yl}1,2,3,4tetrahydroisoquinolin-6-yl)pyridin-3-yl]acetic Acid], the EC50 is reported as 1 nM.
`CC1(C)CCN(c2c(-c3ccc4c(c3)CCN(c3ncnc5c3oc3ncccc35)C4)cnc(Cl)c2[C@H](OC(C)(C)C)C(=O)O)CC1` [Example 92, (S)-2-(tert-Butoxy)-2-(2-chloro-4-(4,4-dimethylpiperidin-1-yl)-5-(2-(pyrido[3′,2′:4,5]furo[3,2-d]pyrimidin-4-yl)-1,2,3,4-tetrahydroisoquinolin-6-yl)pyridin-3-yl)acetic Acid] showed an EC50 of 0.6 nM.
